Test results as given in patent publication US8835378B2, “Multi-domain amphipathic helical peptides and methods of their use” (The United States of America as represented by the …, priority 2004, dated 2014).
“Also recorded” adds a separate entry of the source. Where a SMILES comes first, the peptide text is derived from it. [ ]: non-standard residue; d: D form.

Legend:
control cells = assay: LDH release from control cells; type: cell-based, human; settings: 40 μg/ml for 18 hours
Procedure: (§1) Cell fixation was performed by a 10 minute treatment with 3% paraformaldehyde in phosphate buffered saline (PBS), followed by three washes with blank media. Lactate dehydrogenase (LDH) release from cells into the media was measured enzymatically (Roche Diagnostics, Indianapolis, Ind.) and expressed, after subtraction of LDH released into blank media, as the percentage of total cell LDH. Total cell LDH was determined after cell solubilization with 1% Triton X-100.
(§2) Incubation of the cells with L-37pA and D-37pA at the maximum concentration and time used for the efflux studies (40 μg/ml for 18 hours) did, however, consistently result in the release of a small amount of LDH from both cell lines (control cells: L-37pA (6.1%±0.2), D-37pA (6.6%±0.1); ABCA1 cells: L-37pA (4.3%±0.04), D-37pA (5.7%±0.1)).

ABCA1 cells [1] = assay: LDH release from ABCA1 cells; type: cell-based, human; settings: 40 μg/ml for 18 hours
Procedure: as §1, §2

[2] = system: Tangier disease fibroblast cell line with a truncated non-functional ABCA1 transporter; assay: Cholesterol efflux from Tangier disease fibroblasts; type: cell-based, human; settings: 10 μg/ml, 18 hour
Procedure: (§3) FIG. 5 is a graph illustrating ABCA1-independent efflux of cholesterol from Tangier disease fibroblasts. Normal skin fibroblasts (open bars) and Tangier disease skin fibroblasts (solid bars) were examined for their ability to efflux cholesterol over an 18 hour period when treated with 10 μg/ml apoA-I (A), 10 μg/ml L-37pA (L), and 10 μg/ml D-37pA (D). Results are expressed as the mean of triplicates±1 SD.
(§4) In order to confirm that the residual lipid efflux from the control cells to L-37pA and D-37pA (see FIG. 1) was not due to a low level of endogenous ABCA1, a Tangier disease fibroblast cell line with a truncated non-functional ABCA1 transporter (Remaley et al., Proc. Natl. Acad. Sci. USA 96:12685-12690, 1999) was evaluated for lipid efflux (FIG. 5). […] Thromb. Vasc. Biol. 17:1813-1821, 1997.

Normal skin fibroblasts = assay: Cholesterol efflux from normal skin fibroblasts; type: cell-based, human; settings: 10 μg/ml, 18 hour
Procedure: as §3, §4

[3] = system: HeLa cells transfected with only a hygromycin-resistant control plasmid (control cells); assay: Cholesterol and phospholipid efflux from control cells; type: cell-based, human; settings: for cholesterol and phospholipid efflux from control cells (in words): 18 hours
Procedure: (§5) Percentage efflux was calculated after subtracting the radioactive counts in the blank media (αMEM plus 1 mg/ml of BSA), and expressed as the percent of total radioactive counts removed from the cells during the efflux period.
as §1

ABCA1 cells [4] = assay: Two-step competitive binding of radiolabled L-37pA to ABCA1 cells; parameters: species or system human; settings: 8 μM, the maximum concentration tested; 4° C.
Procedure: FIGS. 7A-7B are a pair of graphs illustrating the competitive binding of L-37pA peptide to ABCA1 transfected cells and control cells. ABCA1 cells (FIG. 7A) and control cells (FIG. 7B) were incubated for 3 hours at 4° C. with the indicated concentration of the competitor proteins [L-37pA (triangle), D-37pA (open square), apoA-I (closed circle), L2D-37pA (star), and L3D-37pA (open circle)] and were then washed and incubated for 1 hour at 4° C. with 1 μg/ml of radiolabled L-37pA peptide. Results are expressed as the mean of triplicates±1 SD.
The L-37pA peptide was labeled with ^125I using iodine monochloride. Confluent cells grown on 12-well plates were incubated for 3 hours at 4° C. with the indicated concentration of the unlabeled competitor peptide in αMEM media plus 10 mg/ml of BSA (FIG. 7). […] Cells were washed three times, and cell bound counts were determined after solubilization with 0.1 N NaOH.
A two-step sequential competitive binding assay was performed in order to prevent any potentially interfering interaction of the radiolabled peptide with the competitor proteins (Mendez et al., J. Clin. Invest. 94:1698-1705, 1994). The cells were first incubated with the competitor proteins for 3 hours, washed, and then the cell binding of the radiolabled L-37 peptide was measured. […]

[5] = system: ABCA1 cells and control cells; assay: Cell morphology by light microscopy during efflux experiments; type: cell-based, human
[6] = system: HeLa cells stably transfected with human ABCA1 cDNA (ABCA1 cells); assay: Cholesterol and phospholipid efflux from ABCA1 transfected cells; type: cell-based
Procedure: as §5, §1

| Molecule | LDH release from control cells (percentage of total cell LDH) (control cells) | LDH release from ABCA1 cells (percentage of total cell LDH) (ABCA1 cells [1]) | cholesterol efflux from Tangier disease fibroblasts [2] | cholesterol efflux from normal fibroblasts (Normal skin fibroblasts) | cholesterol efflux time course from control cells (in words) ([3]; 10 μg/ml, 30 hour efflux period) | cholesterol and phospholipid efflux from control cells (in words) [3] | cholesterol and phospholipid efflux from control cells (in words) ([3]; listed as apoA-1) | binding of labeled L-37pA to ABCA1 cells blocked by competitor (ABCA1 cells [4]) | effect on cell morphology [5] | time at which cholesterol efflux from ABCA1 cells was first detectable ([6]; 10 μg/ml) [h] | effect of fixation of ABCA1 cells on cholesterol efflux (in words) ([6]; 10 μg/ml, 18 hours, fixation with 3% paraformaldehyde) | cholesterol and phospholipid efflux from ABCA1 cells (in words) ([6]; 18 hours) | protein concentration at which lipid efflux began to show saturation ([6]; 18 hours) [µg/mL] | molar concentration at which lipid efflux began to show saturation ([6]; corresponds to 10 μg/ml) [µM] |
| --- | --- | --- | --- | --- | --- | --- | --- | --- | --- | --- | --- | --- | --- | --- |
| CC(C)C[C@@H](NC(=O)[C@@H](Cc1c[nH]c2ccccc12)NC(=O)[C@H](N)CC(=O)O)C(=O)N[C@H](CCCCN)C(=O)N[C@H](C)C(=O)N[C@H](Cc1ccccc1)C(=O)N[C@H](Cc1ccc(O)cc1)C(=O)N[C@H](CC(=O)O)C(=O)N[C@H](CCCCN)C(=O)N[C@@H](C(=O)N[C@H](C)C(=O)N[C@H](CCC(=O)O)C(=O)N[C@H](CCCCN)C(=O)N[C@H](CC(C)C)C(=O)N[C@H](CCCCN)C(=O)N[C@H](CCC(=O)O)C(=O)N[C@H](C)C(=O)N[C@H](Cc1ccccc1)C(=O)N1CCC[C@@H]1C(=O)N[C@H](CC(=O)O)C(=O)N[C@H](Cc1c[nH]c2ccccc12)C(=O)N[C@H](CC(C)C)C(=O)N[C@H](CCCCN)C(=O)N[C@H](C)C(=O)N[C@H](Cc1ccccc1)C(=O)N[C@H](Cc1ccc(O)cc1)C(=O)N[C@H](CC(=O)O)C(=O)N[C@H](CCCCN)C(=O)N[C@@H](C(=O)N[C@H](C)C(=O)N[C@H](CCC(=O)O)C(=O)N[C@H](CCCCN)C(=O)N[C@H](CC(C)C)C(=O)N[C@H](CCCCN)C(=O)N[C@H](CCC(=O)O)C(=O)N[C@H](C)C(=O)N[C@H](Cc1ccccc1)C(=O)O)C(C)C)C(C)C [D-37pA] (H-[dD][dW][dL][dK][dA][dF][dY][dD][dK][dV][dA][dE][dK][dL][dK][dE][dA][dF][dP][dD][dW][dL][dK][dA][dF][dY][dD][dK][dV][dA][dE][dK][dL][dK][dE][dA][dF]-OH; N-terminus and C-terminus assumed) | 6.6%±0.1 | 5.7%±0.1 | – | – | – | – | – | – | – | – | – | – | – | – |
| CC(C)C[C@H](NC(=O)[C@H](Cc1c[nH]c2ccccc12)NC(=O)[C@H](CC(=O)O)NC(=O)[C@@H]1CCCN1C(=O)[C@H](Cc1ccccc1)NC(=O)[C@H](C)NC(=O)[C@H](CCC(=O)O)NC(=O)[C@H](CCCCN)NC(=O)[C@H](CC(C)C)NC(=O)[C@H](CCCCN)NC(=O)[C@H](CCC(=O)O)NC(=O)[C@H](C)NC(=O)[C@@H](NC(=O)[C@H](CCCCN)NC(=O)[C@H](CC(=O)O)NC(=O)[C@H](Cc1ccc(O)cc1)NC(=O)[C@H](Cc1ccccc1)NC(=O)[C@H](C)NC(=O)[C@H](CCCCN)NC(=O)[C@H](CC(C)C)NC(=O)[C@H](Cc1c[nH]c2ccccc12)NC(=O)[C@@H](N)CC(=O)O)C(C)C)C(=O)N[C@@H](CCCCN)C(=O)N[C@@H](C)C(=O)N[C@@H](Cc1ccccc1)C(=O)N[C@@H](Cc1ccc(O)cc1)C(=O)N[C@@H](CC(=O)O)C(=O)N[C@@H](CCCCN)C(=O)N[C@H](C(=O)N[C@@H](C)C(=O)N[C@@H](CCC(=O)O)C(=O)N[C@@H](CCCCN)C(=O)N[C@@H](CC(C)C)C(=O)N[C@@H](CCCCN)C(=O)N[C@@H](CCC(=O)O)C(=O)N[C@@H](C)C(=O)N[C@@H](Cc1ccccc1)C(=O)O)C(C)C [L-37pA] (H-DWLKAFYDKVAEKLKEAFPDWLKAFYDKVAEKLKEAF-OH; N-terminus and C-terminus assumed) | 6.1%±0.2 | 4.3%±0.04 | – | – | – | – | – | – | – | – | – | – | – | – |
| apolipoprotein A-I [apoA-I] | – | – | did not efflux significant amounts of cholesterol | effluxed cholesterol | no significant increase above background | do not efflux significant amounts of cholesterol and phospholipid; also recorded: unable | did not cause lipid efflux from control cells | approximately 30% | no morphologic effect was observed | 2 | completely blocked | do so after transfection with ABCA1 | ~10 | 0.36 |
